Earlier results, collected in patent US20040053963A1, “Urotensin-II receptor antagonists” (priority 2003, published 2004).

System: rat-isolated aorta
Settings: Ames et. al. Nature 1999, 401, 282

SMILES: CC(C)[C@H](NC(=O)[C@@H]1CSSC[C@H](NC(=O)[C@H](CC(=O)O)NC(=O)[C@@H]2CCCN2C(=O)[C@@H](NC(=O)[C@@H](N)CCC(=O)O)[C@@H](C)O)C(=O)N[C@@H](Cc2ccccc2)C(=O)N[C@@H](Cc2c[nH]c3ccccc23)C(=O)N[C@@H](CCCCN)C(=O)N[C@@H](Cc2ccc(O)cc2)C(=O)N1)C(=O)O [Human Urotensin-II]
- contractile activity: most potent contractile agonist identified to date
